2 compounds from patent publication US6486161B1, “Use of rifamycin derivative for treating mastitis in a domestic animal” (priority 2000, dated 2002) can be followed below.

Structures are written as SMILES. In brackets after ≈: the same amount, converted by molar mass. Where two headings read alike, the source gives them in different places.

What all share (format): cell-based, Staphylococcus aureus
Experiment [1] concerns rifampin-resistant S. aureus 30865. Kind of experiment: microbe, parasite or virus in culture. The note with it: strain 30865. The method, then: (§1) The antibacterial effect of the rifamycin derivative (1) against rifampin-resistant Staphylococcus aureus bacterial strains was determined. The tested bacterial strains were isolated from a variety of animal diseases as well as laboratory strains.
(§2) All bacteria were maintained on 3 mm glass beads immersed in trypticase soy broth (BBL Microbiology Systems, Cockeysville, Md.) with 10% glycerol and held at −70° C. until revived. Prior to testing, the organisms were subcultured on tryptose blood agar base (Difco, Detroit, Mich.) supplemented with 5% sheep blood for 24 hours at 35° C.
(§3) The compounds were dissolved in 95% ethanol and diluted to 10% ethanol in sterile, distilled water except for the compounds used in the in vivo testing where saline was used to dilute the original ethanol/drug suspension. Further dilutions were conducted in water or saline.
(§4) MICs were determined using the microbroth dilution method. In addition to the test organisms, the following quality control strain also was tested: Staphylococcus aureus ATCC 29213. The results are shown in Table 5, wherein R is the alkyl group R in the rifamycin derivative (1).

In experiment [2] the test system is rifampin-resistant S. aureus 30871. Kind of experiment: microbe, parasite or virus in culture. To be noted: strain 30871. The method, then:
as §1, §2, §3, §4

Experiment [3] has as its system rifampin-resistant S. aureus 30869. Kind of experiment: microbe, parasite or virus in culture. To be noted: strain 30869. As to the method:
as §1, §2, §3, §4

In experiment [4] the test system is rifampin-resistant S. aureus 30860. Kind of experiment: microbe, parasite or virus in culture. The note with it: strain 30860. The method, then:
as §1, §2, §3, §4

Experiment [5] concerns rifampin-resistant S. aureus B93-728M. Kind of experiment: microbe, parasite or virus in culture. To be noted: strain B93-728M. As to the method:
as §1, §2, §3, §4

Experiment [6] deals with rifampin-resistant S. aureus 30859. Kind of experiment: microbe, parasite or virus in culture. The note with it: strain 30859. As to the method:
as §1, §2, §3, §4

The subject of experiment [7] is rifampin-resistant S. aureus 30888. Kind of experiment: microbe, parasite or virus in culture. To be noted: strain 30888. The method, then:
as §1, §2, §3, §4

The subject of experiment [8] is rifampin-resistant S. aureus 30858. Kind of experiment: microbe, parasite or virus in culture. The note with it: strain 30858. The method, then: as §1, §2, §3, §4
In experiment [9] the test system is rifampin-resistant S. aureus 30863. Kind of experiment: microbe, parasite or virus in culture. To be noted: strain 30863. The method, then:
as §1, §2, §3, §4

The test system of experiment [10] is rifampin-resistant S. aureus 31068. Kind of experiment: microbe, parasite or virus in culture. The note with it: strain 31068. The method, then:
as §1, §2, §3, §4

In experiment [11] the test system is rifampin-resistant S. aureus 30862. Kind of experiment: microbe, parasite or virus in culture. To be noted: strain 30862. The method, then:
as §1, §2, §3, §4

The subject of experiment [12] is rifampin-resistant S. aureus 30867. Kind of experiment: microbe, parasite or virus in culture. To be noted: strain 30867. The method, then:
as §1, §2, §3, §4

The test system of experiment [13] is rifampin-resistant S. aureus 12637. Kind of experiment: microbe, parasite or virus in culture. To be noted: strain 12637. The method, then: as §1, §2, §3, §4
Experiment [14] has as its system S. aureus B83-1. Kind of experiment: Mutation frequency for resistance, strain B83-1. The method, then:
(§5) The mutation frequency for development of resistance to the rifamycin derivative (1) as compared to rifampin was determined with selected Staphylococcus aureus strains.
(§6) Four S. aureus strains were used: S. aureus 30857, a rifampin-resistant isolate: S. aureus 6097, a strain used in the mouse mastitis test and originally from a case of gangrenous bovine mastitis; S. aureus B83-1, derived from the Newbould 305 strain; and S. aureus ATCC 29213, the in vitro control stain recommended by NCCLS.
(§7) All S. aureus strains were maintained on 3 mm glass beads immersed in trypticase soy broth (BBL Microbiology Systems, Cockeysville, Md.) with 10% glycerol and held at −70° C. until revived. Prior to testing, the strains were subcultured on tryptose blood agar base (Difco, Detroit, Mich.) supplemented with 5% sheep blood for 24 hours at 35° C.
(§8) These compounds were dissolved in 95% ethanol, a solution which was then diluted to 10% ethanol with sterile distilled water. Further dilutions were conducted in water.
(§9) The mutation frequency for development of resistance to the compounds tested was determined by the following method. A single colony of each strain was removed from the surface of a blood agar plate with a cotton swab, suspended in 5 ml of Mueller-Hinton broth (BBL), and streaked on the entire surface of five Mueller-Hinton agar plates. The plates were incubated overnight under aerobic conditions at 35° C., growth was removed from the agar using a sterile cotton swab, and the bacteria were suspended in 10 ml physiological saline. This bacterial suspension was the inoculum for the mutation frequency determinations. Standard plate counts were performed on the inoculum by performing serial dilutions and plating a 0.1 ml aliquot on the surface of ten Mueller-Hinton agar plates at each concentration. The plates were incubated for 18-24 hours at 35° C. under aerobic conditions and colony counts performed. Mean bacterial counts were calculated for the inoculum with each strain.
(§10) A 0.1 ml aliquot of the inoculum was then used to inoculate the entire surface of ten plates each containing 1, 10, and 100 μg/ml of the test antimicrobial agents. The plates were incubated for 18-24 hours at 35° C. under aerobic conditions and colony counts performed. Mean bacterial counts were calculated for each antimicrobial concentration and the mutation frequency calculated by dividing the number of colonies which grew on the drug containing media by the inoculum size.

The test system of experiment [15] is S. aureus 30857, a rifampin-resistant isolate. Kind of experiment: MIC, microbroth dilution, strain 30857. To be noted: for MIC: strain 30857. As to the method:
as §6, §7, §8
(§11) MIC (Minimum Inhibitory Concentration) determinations were performed using the microbroth dilution method. (National Committee for Clinical Laboratory Standards, 1990 Approved Standard […]. Methods for dilution antimicrobial susceptibility tests for bacteria that grow aerobically, 3rd edition. National Committee for Clinical Laboratory Standards, Villanova, Pa.) The results are shown in Table 3, wherein R is the alkyl group R in the rifamycin derivative (1).

For experiment [16] the test system is unchanged. To be noted: strain 30857. As to the method: as §5, §6, §7, §8, §9, §10
Experiment [17] has as its system S. aureus B83-1. Kind of experiment: MIC, microbroth dilution, strain B83-1. As to the method:
as §6, §7, §8, §11

In the next experiment the test system is S. aureus ATCC 29213. Kind of experiment: MIC, microbroth dilution, strain ATCC 29213. The method, then: as §6, §7, §8, §11
Setting [18] is: Staphylococcus aureus, read-out: MIC.

With `COC1/C=C/OC2(C)Oc3c(C)c(O)c4c(=O)c(c5oc6cc(N7CCN(C)CC7)cc(O)c6nc-5c4c3C2=O)NC(=O)/C(C)=C\C=C\C(C)C(O)C(C)C(O)C(C)C(OC(C)=O)C1C` (stereo not drawn) [R = methyl], the MIC in experiment [1] came out at 0.06 µg/mL (≈ 0.0667 µM); in experiment [2], 2.0 µg/mL (≈ 2.22 µM); in experiment [3], 0.25 µg/mL (≈ 0.278 µM); in experiment [4], 4.0 µg/mL (≈ 4.45 µM); in experiment [5], 0.5 µg/mL (≈ 0.556 µM); in [6] it was 0.25 µg/mL (≈ 0.278 µM). The MIC turned out to be 0.13 µg/mL (≈ 0.145 µM) in experiment [7]; 2.0 µg/mL (≈ 2.22 µM) in experiment [8]; 0.25 µg/mL (≈ 0.278 µM) in experiment [9]; 2.0 µg/mL (≈ 2.22 µM) in experiment [10]; 2.0 µg/mL (≈ 2.22 µM) in experiment [11]; 0.5 µg/mL (≈ 0.556 µM) in experiment [12]. Besides, the MIC came to 0.25 µg/mL (≈ 0.278 µM) in experiment [13], 0.5 µg/mL (≈ 0.556 µM) in [15], 0.061 ng/mL (≈ 6.79e-05 µM) in the experiment with S. aureus B83-1 [17] and 0.061 ng/mL (≈ 6.79e-05 µM) with S. aureus ATCC 29213. For the same compound, the Mutation frequency is recorded as 1.5 × 10^−8 in the experiment on S. aureus B83-1 [14] (1 μg/ml); <1.8 × 10^−9 in the experiment on S. aureus B83-1 [14] (10 μg/ml); <1.8 × 10^−9 with S. aureus B83-1 [14] (100 μg/ml); <1.6 × 10^−10 in experiment [16] (1 μg/ml); <1.6 × 10^−10 in [16] (10 μg/ml); <1.6 × 10^−10 in [16] (100 μg/ml). The “effectiveness against rifampin-resistant strains” value in experiment [15] (MIC, in words) is listed as “effective against rifampin-resistant strains”.
Consider `CO[C@H]1/C=C/O[C@@]2(C)Oc3c(C)c(O)c4c(O)c(c(/C=N/N5CCN(C)CC5)c(O)c4c3C2=O)NC(=O)/C(C)=C\C=C\[C@H](C)[C@H](O)[C@@H](C)[C@@H](O)[C@@H](C)[C@H](OC(C)=O)[C@@H]1C` [Rifampin, reference compound], for which the MIC in experiment [1] (setting [18]) is 32 µg/mL (≈ 38.9 µM); in [2] (setting [18]), greater than 32 µg/mL; in [3] (setting [18]) it was 4 µg/mL (≈ 4.86 µM); in experiment [4] (setting [18]), greater than 32 µg/mL; in experiment [5] (setting [18]) it was 2 µg/mL (≈ 2.43 µM); in [6] (setting [18]), greater than 32 µg/mL. The MIC in experiment [7] (setting [18]) is greater than 32 µg/mL; in experiment [8] (setting [18]), 8 µg/mL (≈ 9.72 µM); in [9] (setting [18]), greater than 32 µg/mL; in [10] (setting [18]), 4 µg/mL (≈ 4.86 µM); in experiment [11] (setting [18]), greater than 32 µg/mL; in experiment [12] (setting [18]), 32 µg/mL (≈ 38.9 µM). The MIC in [13] (setting [18]) was greater than 32 µg/mL; in experiment [15] (setting [18]), greater than 4 µg/mL; in the experiment on S. aureus B83-1 [17] (Staphylococcus aureus, B831, read-out: MIC) it was 1.9 ng/mL (≈ 0.00231 µM); in the experiment with S. aureus ATCC 29213 (Staphylococcus aureus, ATCC29213, read-out: MIC), 1.9 ng/mL (≈ 0.00231 µM). For the same compound, the Mutation frequency in the experiment on S. aureus B83-1 [14] (1 μg/ml) is on record as 3.7 × 10^−8; in the experiment with S. aureus B83-1 [14] (10 μg/ml), 4.5 × 10^−8; with S. aureus B83-1 [14] (100 μg/ml), 1.9 × 10^−8; in [16] (1 μg/ml), >1.0 × 10^−7; in experiment [16] (10 μg/ml), >1.0 × 10^−7; in experiment [16] (100 μg/ml) it was >1.0 × 10^−7.
